# Where two headings read alike, the source gives them in different places.
# How the values were obtained:
# UACC-257 cells = test: Cell proliferation PAD assay, UACC-257; format: cell-based; conditions: Homo sapiens, UACC257 cells, 6pt, 48 hours
# Experimental: (§1) Cell lines used are available from American Type Culture Collection (ATCC), for example, cell cultures containing A549 (ATCC# CCL-185), HeLa (ATCC# CCL-2), HCT116 ATTC# CCL-247), and H1299 (ATCC# CRL-5803) cells were maintained in T175 flasks following the ATCC recommended media and handling procedures. […] A 20,000 cells/ml solution was made for plating. Cells were plated in black Packard 96 well plates by placing 100 μl per well (2,000 cells per well). […] The definitions of the cell types used are as follows: A549 is lung carcinoma; HI 299 is non-small cell lung carcinoma; HI 155 is non-small cell lung carcinoma; AsPC-1 is pancreatic adenocarcinoma; Caov-3 is ovarian adenocarcinoma; COLO 205 is colorectal adenocarcinoma; DLD-1 colorectal adenocarcinoma; HCT116 is colorectal carcinoma; DU 145 is prostate carcinoma; ES-2 is ovarian clear cell carcinoma; H460 is large cell lung carcinoma; HELA is cervical adenocarcinoma; MIA PaCa-2 is pancreatice carcinoma; OVCAR-3 is ovarian adenocarcinoma; OVCAR8 is ovarian carcinoma; PC3 is prostate adenocarcinoma; SK-OV-3 is ovarian adenocarcinoma; SU86.86 is pancreatic carcinoma; TOV-21G is avarian clear cell carcinoma; U2OS is bone osteosarcoma; is ASPC-I is pancreatic adenocarcinoma; BXPC-3 is pabcreatic adenocarcinoma; HL60 is promyeloblast promyelocytic leukemia; K562 is bone marrow chronic myelogenous leukemia; L1210 is mouse lymphocytic leukemia; MOLT3 is T lymphoblast acute lymphoblastic leukemia; MOLT4 is T lymphoblast acute lymphoblastic leukemia; SW620 is colorectal adenocarcinoma; THP-1 is monocyte acute monocytic leukemia; U937 is histiocytic lymphoma; and UACC-257 is melanoma.
# (§2) Compounds and additional media were added 24 hours after cell plating. […] All compound testing was done in duplicate using 6.3 fold dilutions starting with 10 mM. […] Taxol and at least one additional control were run on all plates. Three microliters of the compound master plate were added to deep well blocks containing 750 μl of RPMI media. One hundred microliters were transferred from the compound/media deep well blocks to the plated cells resulting in a 500 fold dilution of the compounds. Cells were grown at 37° C., 5% CO2 for 48 hours.
# (§3) Cells to be analyzed by photography were fixed and stained. One hundred microliters of media were removed and 100 μl of 9.3% formamide was added to each well. Plates were left on the benchtop for 45 minutes. A staining solution containing 1.55 μl of 1 mg/ml DAPI added to 18.75 ml PBS was warmed for 15 minutes at 37° C. The cells were aspirated prior to washing with 100 μl of PBS. Seventy microliters of PBS were aspirated and 170 μl of the DAPI solution were added to each well of fixed cells. Plates were left at room temperature for one hour then aspirated and washed twice with 100 μl of PBS. The stained cells were left at 4° C. for a minimum of 16 hours before photographic analysis with Array Scan II (Cellomics). Analysis of the photographic images to determine numbers of live cells (proliferation), apoptotic cells and dead cells, were according to the methods described in U.S. Utility patent application Ser. No. 10/652,440, which incorporated herein in its entirety.
# TRAF6/Uev1A/Ubc13 = molecular target: T1, TRAF6/Uev1A/Ubc13 (Homo sapiens, UniProt Q9Y4K3); test: TRAF6/Uev1A/Ubc13 plate-based ubiquitin ligase assay; format: biochemical
# T1 sequence (Q9Y4K3 1-522): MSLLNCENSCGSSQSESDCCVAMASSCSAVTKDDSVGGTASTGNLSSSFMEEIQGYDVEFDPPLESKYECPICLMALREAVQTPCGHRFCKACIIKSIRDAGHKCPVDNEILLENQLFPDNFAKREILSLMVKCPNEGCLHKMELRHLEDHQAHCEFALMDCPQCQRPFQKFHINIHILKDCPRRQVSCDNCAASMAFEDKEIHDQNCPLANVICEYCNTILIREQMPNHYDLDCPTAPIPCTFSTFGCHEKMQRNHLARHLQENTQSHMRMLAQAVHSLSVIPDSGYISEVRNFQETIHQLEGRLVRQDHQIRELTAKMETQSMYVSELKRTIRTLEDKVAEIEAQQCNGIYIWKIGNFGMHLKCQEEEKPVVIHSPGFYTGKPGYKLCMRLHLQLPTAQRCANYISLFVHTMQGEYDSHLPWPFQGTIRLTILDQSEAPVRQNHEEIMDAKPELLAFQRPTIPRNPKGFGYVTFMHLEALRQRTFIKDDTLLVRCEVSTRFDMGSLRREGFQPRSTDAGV
# How it was run: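 Ligase activity was read as luminescence from anti-Flag/HRP detection of Flag-ubiquitin bound to casein-blocked Ni-plates alongside His-ubiquitin after a 1 h room-temperature reaction. Buffer: 62.5 mM Tris pH 7.5, 6.25 mM MgCl2, 1.0 mM DTT, 2 μM ATP; E1, Uev1a/Ubc13 and TRAF6 added last to start. IC50s derived across compound concentrations.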
# OVCAR8 cells = test: Cell proliferation PAD assay, OVCAR8; format: cell-based; conditions: Homo sapiens, OVCAR-8, 6pt, 48 hours
# Experimental: as §1, §2, §3
# A549 cells = test: Cell proliferation PAD assay, A549; format: cell-based; conditions: Homo sapiens, 48 hours
# How it was run: (§4)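 Cells were seeded at 2,000 per well and dosed 24 h later, in duplicate, with 6.3-fold dilution series from a 10 mM master stock diluted 500-fold into wells. After 48 h at 37 °C, 5% CO2, cells were formamide-fixed, DAPI-stained and imaged to count live, apoptotic and dead cells.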
# H1299 cells = test: Cell proliferation PAD assay, H1299; format: cell-based; conditions: Homo sapiens, 48 hours
# How it was run: as §4
# [1] = system: ICAM-1 expression in A549 cells; test: ICAM assay (IL-1 induced ICAM-1/CD54 expression in A549 cells); format: cell-based, human; conditions: Homo sapiens, A549, ICAM assay
# How it was run: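 A549 cells, 10,000/well, preincubated with compound 1 h at 37° C, then stimulated with IL-1 (4 μl of 25 ng/ml added) for 4 h. Surface ICAM-1 detected by anti-CD54 plus anti-mouse IgG staining for 1 h, luminescent read-out after PBS washes.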
# ROC1/CUL1 = molecular target: T2, ROC1/CUL1 (Homo sapiens, UniProt P62877+Q13616); test: ROC1/CUL1 ubiquitin ligase assay (SCF assay); format: biochemical
# T2 construct: made in house
# Experimental: Inhibition of ubiquitin ligase activity of E1+E2+E3 was measured using the protocol as described in WO 01/75145 with E3 as the ROC1/CUL1, ROC1/CUL2, or ROC2/CUL5 complex.
# The wells of nickel-substrate 96-well plates (Pierce Chemical) are blocked with 100 μl of 1 casein/phosphate buffered saline (PBS) for 1 hour at room temperature, then washed with 200 μl of PBST (0.1% Tween-20 in PBS) 3 times. To each well is added the following Flag-ubiquitin (see above) reaction solution: 62.5 mM Tris pH 7.5, 6.25 mm MgCl2, 0.75 mM DTT, 2.5 mM ATP, 2.5 mM NaF1, 2.5 nM Okadaic acid, 100 ng Flag-ubiquitin (made as described above).
# The buffer solution is brought to a final volume of 80 μl with Milipore-filtered water, followed by the addition of 10 μl DMSO.
# To the above solution is then added 10 μl of ubiquitination enzymes in 20 mM Tris buffer, pH 7.5, and 5% glycerol. E2-Ubch5c and E3-His ROC1/Cul1, ROC1/CUL2, and ROC2/CUL5 are made as described in WO 01/75145. E1 is obtained commercially (Affiniti Research Products, Exeter, U. K.). The following amounts of each enzyme are used for these assays: 5 ng/well of E1; […] E2; and 100 ng/well His-E3. Varying amounts of compounds according to the invention are added and the reaction allowed to proceed at room temperature for 1 hour.
# Following the ubiquitination reaction, the wells are washed with 200 μl of PBST 3 times. For measurement of the enzyme-bound ubiquitin, 100 gel of Mouse anti-Flag (1:10,000) and anti-Mouse Ig-HRP (1:15, 000) in PBST are added to each well and allowed to incubate at room temperature for 1 hour. The wells are then washed with 200 μl of PBST 3 times, followed by the addition of 100 μl of luminol substrate (1/5 dilution). Luminescence for each well is then measured using a fluorimeter.
# Table 2 below illustrates the inhibitory activity of the compounds of the invention determined by the TRAF6/Uev1A/Ubc13 assay as well as in the ICAM, APC and the ROC1/CUL1 Ubiquitin Ligase Assay (SCF Assay). The IC50 values were determined using a various concentrations of the compounds.
# APC11/APC2 = APC11/APC2 (Homo sapiens, UniProt Q9NYG5+Q9UJX6); test: APC-11/APC-2 ligase assay (APC auto ubiquitination); format: biochemical; conditions: APC assay
# How it was run: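 His-tagged APC was captured on nickel plates with human E1 (5 ng/well), UbcH5c (20 ng/well), APC (100 ng/well) and Flag-ubiquitin (100 ng/well) in a Tris pH 7.6 reaction buffer containing 2.5 mM ATP, for 1 hour at room temperature. Read-out was anti-Flag/HRP chemiluminescence. IC50 was set against a DMSO control, typically from 6 or 8 concentrations.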
# [2] = NCI-H1299, 3pt, read-out: H1299 3pt
# [3] = NCI-H1299, 6pt, read-out: H1299 6pt
# T2 sequence (P62877 whole entry): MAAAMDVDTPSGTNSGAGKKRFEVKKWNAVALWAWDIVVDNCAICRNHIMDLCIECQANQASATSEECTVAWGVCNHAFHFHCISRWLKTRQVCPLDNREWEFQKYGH
# T2 sequence (Q13616 whole entry): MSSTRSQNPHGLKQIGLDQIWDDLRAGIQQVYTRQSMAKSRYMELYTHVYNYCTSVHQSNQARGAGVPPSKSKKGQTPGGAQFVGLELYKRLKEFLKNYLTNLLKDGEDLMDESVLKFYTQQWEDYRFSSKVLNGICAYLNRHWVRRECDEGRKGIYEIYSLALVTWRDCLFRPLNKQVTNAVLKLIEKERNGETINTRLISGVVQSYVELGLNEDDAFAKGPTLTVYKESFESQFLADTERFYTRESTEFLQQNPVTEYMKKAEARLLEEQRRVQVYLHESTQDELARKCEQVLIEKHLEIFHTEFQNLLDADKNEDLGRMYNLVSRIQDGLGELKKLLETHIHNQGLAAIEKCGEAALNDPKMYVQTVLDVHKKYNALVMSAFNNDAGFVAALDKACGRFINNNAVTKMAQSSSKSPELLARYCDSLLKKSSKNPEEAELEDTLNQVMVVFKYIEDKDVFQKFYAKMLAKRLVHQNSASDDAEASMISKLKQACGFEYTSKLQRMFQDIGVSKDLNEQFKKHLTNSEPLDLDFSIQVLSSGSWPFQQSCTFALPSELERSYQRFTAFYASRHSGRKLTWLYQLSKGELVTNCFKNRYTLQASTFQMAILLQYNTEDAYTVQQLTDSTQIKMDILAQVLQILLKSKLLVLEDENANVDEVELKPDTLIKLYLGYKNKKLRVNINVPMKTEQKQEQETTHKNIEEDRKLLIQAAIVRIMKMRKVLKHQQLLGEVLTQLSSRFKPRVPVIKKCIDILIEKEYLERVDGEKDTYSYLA
# APC11/APC2, sequence (Q9NYG5 whole entry): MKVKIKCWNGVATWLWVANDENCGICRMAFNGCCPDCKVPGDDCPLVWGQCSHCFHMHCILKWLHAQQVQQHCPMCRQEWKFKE
# APC11/APC2, sequence (Q9UJX6 whole entry): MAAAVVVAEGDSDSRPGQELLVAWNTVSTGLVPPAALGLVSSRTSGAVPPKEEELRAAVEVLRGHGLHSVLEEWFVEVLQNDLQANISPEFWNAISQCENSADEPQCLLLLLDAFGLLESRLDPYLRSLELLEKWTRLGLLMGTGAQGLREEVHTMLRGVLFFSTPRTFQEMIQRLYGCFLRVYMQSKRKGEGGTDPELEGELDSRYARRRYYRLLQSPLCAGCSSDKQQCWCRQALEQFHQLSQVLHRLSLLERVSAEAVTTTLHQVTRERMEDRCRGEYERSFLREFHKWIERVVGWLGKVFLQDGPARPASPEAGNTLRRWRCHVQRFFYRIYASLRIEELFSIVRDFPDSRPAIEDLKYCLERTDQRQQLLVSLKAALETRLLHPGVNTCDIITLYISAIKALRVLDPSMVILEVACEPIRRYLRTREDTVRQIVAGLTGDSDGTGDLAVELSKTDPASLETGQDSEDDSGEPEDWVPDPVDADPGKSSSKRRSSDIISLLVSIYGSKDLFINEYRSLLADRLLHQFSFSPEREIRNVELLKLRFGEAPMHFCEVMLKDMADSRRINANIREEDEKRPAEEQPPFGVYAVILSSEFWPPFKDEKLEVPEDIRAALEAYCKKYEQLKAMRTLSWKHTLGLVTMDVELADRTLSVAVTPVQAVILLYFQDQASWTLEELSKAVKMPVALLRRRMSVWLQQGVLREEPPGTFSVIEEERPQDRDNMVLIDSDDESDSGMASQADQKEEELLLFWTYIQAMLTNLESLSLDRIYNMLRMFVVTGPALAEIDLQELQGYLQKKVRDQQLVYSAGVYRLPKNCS
Structure (SMILES),IC50 (TRAF6/Uev1A/Ubc13),IC50 (OVCAR8 cells),"IC50 (A549 cells; 3pt, read-out: A549 3pt)",IC50 (H1299 cells; [2]),"IC50 (A549 cells; 6pt, read-out: A549 6pt)",IC50 (H1299 cells; [3]),IC50 [1],IC50 (ROC1/CUL1),IC50 (APC11/APC2),IC50 (UACC-257 cells)
"COc1ccccc1NS(=O)(=O)c1cccc2nonc12 [compound 11, N-(2-methoxyphenyl)-2,1,3-benzoxadiazole-4-sulfonamide]",1 to 20 µM,≥ 20 µM,≥ 20 µM,≥ 20 µM,–,–,–,–,–,≥ 20 µM
"O=S(=O)(Nc1ccncc1)c1ccc2nonc2c1 [compound 26, N-pyridin-4-yl-2,1,3-benzoxadiazole-5-sulfonamide]",–,≥ 20 µM,≥ 20 µM,≥ 20 µM,–,–,–,–,–,≥ 20 µM
"O=C(CN1CCN(c2ccc([N+](=O)[O-])c3nonc23)CC1)N1CCOCC1 [compound 107, 4-[4-(2-morpholin-4-yl-2-oxoethyl)piperazin-1-yl]-7-nitro-2,1,3-benzoxadiazole]",≥ 20 µM,≥ 20 µM,≥ 20 µM,≥ 20 µM,≥ 20 µM,≥ 20 µM,–,–,–,≥ 20 µM
"CN1CCN(S(=O)(=O)c2ccc(Sc3ccc4ccccc4n3)c3nonc23)CC1 [compound 268, 2-({7-[(4-methylpiperazin-1-yl)sulfonyl]-2,1,3-benzoxadiazol-4-yl}thio)quinoline]",≥ 20 µM,–,–,–,–,–,≥ 20 µM,≥ 20 µM,–,–
"Cc1ccc(N2CCN(S(=O)(=O)c3c(N4CCN(c5cccc(C)n5)CC4)ccc4nonc34)CC2)nc1 [compound 203, 5-[4-(6-methylpyridin-2-yl)piperazin-1-yl]-4-{[4-(5-methylpyridin-2-yl)piperazin-1-yl]sulfonyl}-2,1,3-benzoxadiazole]",1 to 20 µM,–,–,–,–,–,≥ 20 µM,≥ 20 µM,–,–
"CC1CC(C)CN(c2ccc(S(=O)(=O)N3CC(C)CC(C)C3)c3nonc23)C1 (stereo not drawn) [compound 193, 4-(3,5-dimethylpiperidin-1-yl)-7-[(3,5-dimethylpiperidin-1-yl)sulfonyl]-2,1,3-benzoxadiazole]",1 to 20 µM,–,–,–,–,–,–,1 to 20 µM,1 to 20 µM,–

# The next lines start with results.
IC50 (TRAF6/Uev1A/Ubc13),IC50 (OVCAR8 cells),"IC50 (A549 cells; 3pt, read-out: A549 3pt)",IC50 (H1299 cells; [2]),"IC50 (A549 cells; 6pt, read-out: A549 6pt)",IC50 (H1299 cells; [3]),IC50 [1],IC50 (ROC1/CUL1),IC50 (APC11/APC2),Structure (SMILES),IC50 (UACC-257 cells)
1 to 20 µM,–,–,–,–,–,–,1 to 20 µM,1 to 20 µM,"O=C(Nc1cccc2nonc12)C1CN(c2ncccc2Cl)C1 [compound 486, N-(2,1,3-benzoxadiazol-4-yl)-1-(3-chloropyridin-2-yl) azetidine-3-carboxamide]",–
1 to 20 µM,1 to 20 µM,1 to 20 µM,1 to 20 µM,1 to 20 µM,1 to 20 µM,–,–,–,"O=[N+]([O-])c1cc(Cl)c(Oc2ccc(S(=O)(=O)Nc3cccc4nonc34)cc2Cl)c(Cl)c1 [compound 79, N-2,1,3-benzoxadiazol-4-yl-3-chloro-4-(2,6-dichloro-4-nitrophenoxy)benzenesulfonamide]",≥ 20 µM
≥ 20 µM,≥ 20 µM,≥ 20 µM,≥ 20 µM,1 to 20 µM,≥ 20 µM,–,–,–,"COC(=O)c1ccc(Nc2ccc(S(=O)(=O)Nc3ccc(C(=O)OC)cc3)c3nonc23)cc1 [compound 9, Methyl 4-{[(7-{[4-(methoxycarbonyl)phenyl]amino}-2,1,3-benzoxadiazol-4-yl)sulfonyl]amino}benzoate]",≥ 20 µM
1 to 20 µM,–,–,–,–,–,≥ 20 µM,≥ 20 µM,–,"COc1ccc(Cl)cc1NS(=O)(=O)c1ccc(Cl)c2nonc12 [compound 269, 7-chloro-N-(5-chloro-2-methoxyphenyl)-2,1,3-benzoxadiazole-4-sulfonamide]",–
1 to 20 µM,–,–,–,–,–,≥ 20 µM,≥ 20 µM,–,"COC(=O)c1ccc(NS(=O)(=O)c2c(Sc3cccc4cccnc34)ccc3nonc23)cc1 [compound 215, methyl 4-({[5-(quinolin-8-ylthio)-2,1,3-benzoxadiazol-4-yl]sulfonyl}amino)benzoate]",–
1 to 20 µM,–,–,–,–,–,≥ 20 µM,≥ 20 µM,–,"O=[N+]([O-])c1ccc(Sc2ccc3ccccc3n2)c2nonc12 [compound 238, 2-[(7-nitro-2,1,3-benzoxadiazol-4-yl)thio]quinoline]",–

# From patent US20050282818A1, “Ubiquitin ligase inhibitors” (Rigel Pharmaceuticals, Inc., priority 2004, published 2005)
